Measurements taken from a compilation of properties of binary mixtures (doi:10.1007/s10953-022-01154-2).

Assay: xn = mol fraction of the nth substance listed
Conditions: 101.3 kPa

CC[n+]1ccn(C)c1.N#C[S-] + CC1COC(=O)O1
Conditions	electrical conductivity [S/m]	viscosity [mPa·s]
293.15 K, x1 = 0.0989	1.49	4.213
293.15 K, x1 = 0.4	2.17	9.86
293.15 K, x1 = 0.499	2.06	12.27
293.15 K, x1 = 0.599	1.96	15.04
293.15 K, x1 = 0.7045	1.89	18.06
293.15 K, x1 = 0.796	1.77	20.66
293.15 K, x1 = 0.8942	1.66	23.53
293.15 K, x1 = 1	1.58	26.76
298.15 K, x1 = 0.2045	2.28	5.073
298.15 K, x1 = 0.2984	2.45	6.601
298.15 K, x1 = 0.499	2.25	10.59
298.15 K, x1 = 0.796	1.97	17.73
298.15 K, x1 = 0.8942	1.86	20.22
298.15 K, x1 = 1	1.75	23.11
303.15 K, x1 = 0.0989	1.86	3.259
303.15 K, x1 = 0.2045	2.48	4.415
303.15 K, x1 = 0.2984	2.67	5.742
303.15 K, x1 = 0.4	2.58	7.328
303.15 K, x1 = 0.499	2.47	9.17
303.15 K, x1 = 0.599	2.38	11.19
303.15 K, x1 = 0.7045	2.28	13.39
303.15 K, x1 = 0.796	2.19	15.34
303.15 K, x1 = 0.8942	2.06	17.54
303.15 K, x1 = 1	1.95	20.12
308.15 K, x1 = 0.0989	2.09	2.877
308.15 K, x1 = 0.2045	2.7	3.859
308.15 K, x1 = 0.2984	2.92	4.972
308.15 K, x1 = 0.4	2.82	6.341
308.15 K, x1 = 0.499	2.71	7.916
308.15 K, x1 = 0.599	2.62	9.67
308.15 K, x1 = 0.7045	2.52	11.57
308.15 K, x1 = 0.796	2.42	13.28
308.15 K, x1 = 0.8942	2.29	15.21
308.15 K, x1 = 1	2.17	17.5
313.15 K, x1 = 0.0989	2.32	2.569
313.15 K, x1 = 0.2045	2.94	3.39
313.15 K, x1 = 0.2984	3.17	4.367
313.15 K, x1 = 0.4	3.07	5.56
313.15 K, x1 = 0.499	2.96	6.909
313.15 K, x1 = 0.599	2.87	8.432
313.15 K, x1 = 0.796	2.67	11.58
313.15 K, x1 = 0.8942	2.52	13.32
313.15 K, x1 = 1	2.39	15.32
318.15 K, x1 = 0.0989	2.55	2.299
318.15 K, x1 = 0.4	3.33	4.83
318.15 K, x1 = 0.499	3.22	5.988
318.15 K, x1 = 0.796	2.92	10.18
318.15 K, x1 = 1	2.64	13.45
323.15 K, x1 = 0.0989	2.8	2.074
323.15 K, x1 = 0.2984	3.72	3.34
323.15 K, x1 = 0.4	3.6	4.247
323.15 K, x1 = 0.7045	3.28	7.629
323.15 K, x1 = 0.796	3.18	8.83
323.15 K, x1 = 0.8942	3.03	10.15
323.15 K, x1 = 1	2.89	11.78
328.15 K, x1 = 0.0989	3.05	1.878
328.15 K, x1 = 0.2045	3.72	2.36
328.15 K, x1 = 0.2984	4	2.943
328.15 K, x1 = 0.4	3.88	3.72
328.15 K, x1 = 0.7045	3.55	6.692
328.15 K, x1 = 1	3.15	10.37
333.15 K, x1 = 0.2045	4.02	2.095
333.15 K, x1 = 0.2984	4.29	2.593
333.15 K, x1 = 0.4	4.18	3.284
333.15 K, x1 = 0.499	4.06	4.06
333.15 K, x1 = 0.599	3.96	4.939
333.15 K, x1 = 0.7045	3.84	5.885
333.15 K, x1 = 0.796	3.74	6.792
333.15 K, x1 = 0.8942	3.6	7.876
333.15 K, x1 = 1	3.43	9.21
338.15 K, x1 = 0.2045	4.34	–
338.15 K, x1 = 0.2984	4.61	–
338.15 K, x1 = 0.4	4.47	–
338.15 K, x1 = 0.499	4.35	–
338.15 K, x1 = 0.599	4.26	–
338.15 K, x1 = 0.7045	4.13	–
338.15 K, x1 = 0.796	4.02	–
338.15 K, x1 = 0.8942	3.89	–
338.15 K, x1 = 1	3.72	–
338.18 K, x1 = 0.0989	–	1.557
338.18 K, x1 = 0.2045	–	1.89
338.18 K, x1 = 0.4	–	2.891
338.18 K, x1 = 0.499	–	3.563
338.18 K, x1 = 0.599	–	4.34
338.18 K, x1 = 0.7045	–	5.225
338.18 K, x1 = 0.796	–	6.089
338.18 K, x1 = 0.8942	–	7.068
338.18 K, x1 = 1	–	8.1
343.15 K, x1 = 0.0989	3.88	1.432
343.15 K, x1 = 0.2045	4.67	1.699
343.15 K, x1 = 0.2984	4.92	2.057
343.15 K, x1 = 0.599	4.57	3.859
343.15 K, x1 = 0.7045	4.44	4.651
343.15 K, x1 = 0.796	4.32	5.421
343.15 K, x1 = 0.8942	4.2	6.296
